Where two headings read alike, the source gives them in different places.
What was measured:
human BRS3 [1] = molecular target: T1, human BRS3 (Homo sapiens, UniProt P32247); assay: Aequorin bioluminescent assay to measure intracellular Ca++ (HEK293AEQ cells); format: cell-based; conditions: read-out: human BRS-3 EC50
T1 construct: expressed in transfected cells
T1 sequence (P32247 1-399): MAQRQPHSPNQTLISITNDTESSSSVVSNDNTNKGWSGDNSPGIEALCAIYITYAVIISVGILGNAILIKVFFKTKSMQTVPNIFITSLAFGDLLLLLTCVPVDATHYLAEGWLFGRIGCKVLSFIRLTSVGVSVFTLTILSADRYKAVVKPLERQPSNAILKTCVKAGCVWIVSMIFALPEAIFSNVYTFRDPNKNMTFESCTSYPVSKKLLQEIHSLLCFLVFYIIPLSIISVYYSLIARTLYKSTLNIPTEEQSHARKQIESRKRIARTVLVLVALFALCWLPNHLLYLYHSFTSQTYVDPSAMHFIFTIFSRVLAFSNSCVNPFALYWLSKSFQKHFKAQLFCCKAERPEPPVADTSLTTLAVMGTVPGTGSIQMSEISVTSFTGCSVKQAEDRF
Protocol: HEK293/AEQ cell lines stably expressing either human, rat or mouse BRS3 cDNA were generated using standard cell biology techniques and were used for all functional assays and to prepare membranes for the rat BRS3 binding assay. […] The transfected cells were used to prepare membranes for the [^3H]-biphenyl binding assay and for the functional assays. The cells were maintained in culture under the same conditions used for the human and rat stable BRS3 HEK293AEQ cell lines. All cells were grown as attached monolayers to approximately 90% confluency in tissue culture flasks under the appropriate media in an incubator at 37° C. with 5% CO2. Cells were passed 1:3 to 1:5 twice a week depending on the rate of growth.
The same media (8 mL) containing 20 μM coelenterzine was added to the cells and incubated at 37° C. for 1 hr. The media was aspirated and the flasks rinsed with 6 mL ECB buffer (140 mM NaCl, 20 mM KCl, 20 mM HEPES, 5 mM glucose, 1 mM MgCl, 1 mM CaCl, 0.1 mg/mL BSA, pH 7.4). The cells were dissociated with a rubber-tipped scraper in 6 mL of fresh ECB buffer and collected by centrifugation at 2500 rpm for 5 minutes. The cell pellets were resuspended in ECB buffer to a concentration of 200,000 cells/mL and were either used right away or quickly frozen in liquid nitrogen for storage at −80° C. for up to six weeks.
The Aequorin assay itself was performed in 96-well format using a Wallac Microbeta luminometer equipped with microinjector module. Compounds in DMSO (0.5% final concentration) were titrated in the plates at 2× concentration in a volume of 0.1 mL ECB buffer. The cells (20,000 per well) were then injected in 0.1 mL ECB buffer and the bioluminescence monitored for 30 seconds. Alternatively, total bioluminescence was determined over 10 minutes. The bioluminescent readings were plotted vs. the log molar concentration of receptor ligand (compound). The EC50 for activation was reported as the inflection point of the resulting sigmoidal curve.

human BRS3 [2] = molecular target: T1, human BRS3; assay: [125I]-dY-peptide radioligand binding assay (filtration, membranes)
Protocol: Dissociated cells were collected by centrifuging at 1000 rpm for 10 minutes. Cell pellets were resuspended and homogenized at 4° C. using a Polytron homogenizer (setting 40, 20 stokes) in approximately 10 mL membrane preparation buffer (10 mM Tris pH 7.4, 0.01 mM Pefabloc, 10 μM phosphoramidon and 40 μg/mL Bacitracin) per T175 flask. After centrifugation at 2200 rpm (1000×g) for 10 minutes at 4° C., the supernatant was transferred to a clean centrifuge tube and spun at 18,000 rpm (38,742×g) for 15 minutes. at 4° C.
The filters were washed five times with ice-cold washing buffer (1×PBS without Mg^++ and Ca^++). The radioactivity was determined by adding 30 μl of microscintillant/well after each plate was dried at room temperature overnight or placed at 50° C. for 1 hr.
A Packard Top Count was used to read the filter plates. The data in % inhibition of binding was plotted vs. the log molar concentration of receptor ligand (compound). The IC50 was reported as the inflection point of the resulting sigmoidal curve. […] The binding assays for the rat and mouse Bombesin Receptor Subtype 3 (BRS3) were performed in a similar fashion.

[3] = Bombesin Subtype-3 Receptor agonism, method C, racemic mixture or the more potent enantiomer after HPLC separation
[4] = Bombesin Subtype-3 Receptor Binding, method A, racemic mixture or the more potent enantiomer after HPLC separation, read-out: human BRS-3 IC50

Row | SMILES | EC50 (human BRS3 [1]; [3]) | IC50 (human BRS3 [2]) | IC50 (human BRS3 [2]; [4]) | EC50 (human BRS3 [1]) | IC50 (human BRS3 [2]; read-out: human BRS-3 IC50)
1 | Cc1ccc2c(c1C)N(S(=O)(=O)c1ccc(C(C)(C)C)cc1)Cc1ccc(C(F)(F)F)nc1N2 (racemic) [Example 251, 6-[(4-tert-Butylphenyl)sulfonyl]-7,8-dimethyl-2-(trifluoromethyl)-6,11-dihydro-5H-pyrido[2,3-b][1,5]benzodiazepine] | 100 nM | 1 nM |  |  | 
2 | CC(C)(C(N)=O)c1cccc2c1N(S(=O)(=O)c1ccc(OC(F)(F)F)cc1)Cc1ccc(C(F)(F)F)nc1N2 [Example 533, 2-Methyl-2-[6-{[4-(trifluoromethoxy)phenyl]sulfonyl}-2-(trifluoromethyl)-6,11-dihydro-5H-pyrido[2,3-b][1,5]-benzodiazepin-7-yl]propanamide] | 16 nM |  | 2.2 nM |  | 
3 | CC(C)(O)c1nc(-c2cccc3c2N(S(=O)(=O)c2ccc(C4(C(F)(F)F)CC4)cc2)Cc2ccc(C(F)(F)F)nc2N3)no1 (racemic) [Example 4, 2-{3-[2-(Trifluoromethyl)-6-({4-[1-(trifluoromethyl)cyclopropyl]phenyl}sulfonyl)-6,11-dihydro-5H-pyrido[2,3-b][1,5]benzodiazepin-7-yl]-1,2,4-oxadiazol-5-yl}-2-propanol] | 139 nM |  | 3.3 nM |  | 
4 | CC(C)(C)c1ccc(S(=O)(=O)N2Cc3ccc(C(F)(F)F)nc3Nc3ccc(-c4noc(CO)n4)cc32)cc1 [Example 437, {3-[6-[(4-tert-Butylphenyl)sulfonyl]-2-(trifluoromethyl)-6,11-dihydro-5H-pyrido[2,3-b][1,5]benzodiazepin-8-yl]-1,2,4-oxadiazol-5-yl}methanol] | 121 nM |  | 4.1 nM |  | 
5 | CC(C)(O)c1nc(C2(c3cccc4c3N(S(=O)(=O)c3ccc(OC(F)(F)F)cc3)Cc3ccc(C(F)(F)F)nc3N4)CCC2)no1 [Example 531, 2-(3-{1-[6-{[4-(Trifluoromethoxy)phenyl]sulfonyl}-2-(trifluoromethyl)-6,11-dihydro-5H-pyrido[2,3-b][1,5]benzodiazepin-7-yl]cyclobutyl}-1,2,4-oxadiazol-5-yl)propan-2-ol] |  |  |  | 94 nM | 0.65 nM
6 | Cc1ccc2c(n1)N(S(=O)(=O)c1ccc(C(C)(C)C)cc1)Cc1ccc(C(F)(F)F)nc1N2 [Example 536] | 66 nM |  | 5.3 nM |  | 
7 | CC(C)(C)c1ccc(S(=O)(=O)N2Cc3ccc(C(F)(F)F)nc3Nc3ccc4ncccc4c32)cc1 [Example 316, 13-[(4-tert-Butylphenyl)sulfonyl]-9-(trifluoromethyl)-12,13-dihydro-7H-pyrido[2′,3′:5,6][1,4]diazepino[2,3-ƒ]quinoline] | 48 nM | 0.64 nM |  |  | 
8 | CC(C)(O)c1nc(-c2cccc3c2N(S(=O)(=O)c2ccc(C(F)(F)F)cc2)Cc2ccc(C(F)(F)F)nc2N3)no1 (racemic) [Example 2, 2-[3-(2-(Trifluoromethyl)-6-{[4-(trifluoromethyl)phenyl]sulfonyl}-6,11-dihydro-5H-pyrido[2,3-b][1,5]benzodiazepin-7-yl)-1,2,4-oxadiazol-5-yl]propan-2-ol] | 158 nM |  | 8.3 nM |  | 

Continued by falling EC50 (human BRS3 [1]; [3]), values first:

Row | EC50 (human BRS3 [1]; [3]) | IC50 (human BRS3 [2]) | IC50 (human BRS3 [2]; [4]) | EC50 (human BRS3 [1]) | IC50 (human BRS3 [2]; read-out: human BRS-3 IC50) | SMILES
9 | 196 nM |  | 38 nM |  |  | CC(C)(C)c1ccc(S(=O)(=O)N2Cc3ccc(C(F)(F)F)nc3Nc3ccncc32)cc1 [Example 464, 6-[(4-tert-Butylphenyl)sulfonyl]-2-(trifluoromethyl)-6,11-dihydro-5H-dipyrido[2,3-e:3′,4′-b][1,4]diazepine]
10 | 130 nM |  | 4.9 nM |  |  | CC(C)(C)c1ccc(S(=O)(=O)N2Cc3ccc(C(F)(F)F)nc3Nc3ccc(C(C)(C)C(=O)O)cc32)cc1 [Example 374, 2-[6-[(4-tert-Butylphenyl)sulfonyl]-2-(trifluoromethyl)-6,11-dihydro-5H-pyrido[2,3-b][1,5]benzodiazepin-8-yl]-2-methylpropanoic acid]
11 | 73 nM | 3.6 nM |  |  |  | CC(C)(O)c1nc(-c2cccc3c2N(S(=O)(=O)c2ccc(OC(F)(F)F)cc2)Cc2ccc(C(F)(F)F)nc2N3)no1 (racemic) [Example 1, 2-{3-[6-{[4-(Trifluoromethoxy)phenyl]sulfonyl}-2-(trifluoromethyl)-6,11-dihydro-5H-pyrido[2,3-b][1,5]benzodiazepin-7-yl]-1,2,4-oxadiazol-5-yl}propan-2-ol]
12 | 63 nM |  | 1.9 nM |  |  | CC(C)(C)c1ccc(S(=O)(=O)N2Cc3ccc(C(F)(F)F)nc3Nc3cccc(-c4noc(C(C)(C)O)n4)c32)cc1 (racemic) [Example 3, 2-{3-[6-[(4-tert-Butylphenyl)sulfonyl]-2-(trifluoromethyl)-6,11-dihydro-5H-pyrido[2,3-b][1,5]benzodiazepin-7-yl]-1,2,4-oxadiazol-5-yl}propan-2-ol]
13 | 52 nM |  | 6.4 nM |  |  | O=S(=O)(c1ccc(C(F)(F)F)cc1)N1Cc2ccc(C(F)(F)F)nc2Nc2cccc(-c3noc(CO)n3)c21 (racemic) [Example 6, [3-(2-(Trifluoromethyl)-6-{[4-(trifluoromethyl)phenyl]sulfonyl}-6,11-dihydro-5H-pyrido[2,3-b]-[1,5]benzodiazepin-7-yl)-1,2,4-oxadiazol-5-yl]methanol]
14 | 34 nM |  | 0.75 nM |  |  | CC(C)(C)c1ccc(S(=O)(=O)N2Cc3ccc(C(F)(F)F)nc3Nc3cccc(-c4noc(CO)n4)c32)cc1 (racemic) [Example 5, {3-[6-[(4-tert-Butylphenyl)sulfonyl]-2-(trifluoromethyl)-6,11-dihydro-5H-pyrido[2,3-b]-[1,5]benzodiazepin-7-yl]-1,2,4-oxadiazol-5-yl}methanol]
15 | 33 nM |  | 2.9 nM |  |  | O=S(=O)(c1ccc(OC(F)(F)F)cc1)N1Cc2ccc(C(F)(F)F)nc2Nc2cccc(-c3noc(CO)n3)c21 (racemic) [Example 7, {3-[6-{[4-(Trifluoromethoxy)phenyl]sulfonyl}-2-(trifluoromethyl)-6,11-dihydro-5H-pyrido[2,3-b]-[1,5]benzodiazepin-7-yl]-1,2,4-oxadiazol-5-yl}methanol]
